How the values were obtained:
[1] = system: influenza virus A/Taiwan/1/86 (H1N1); test: organism not typed; type: cell-based; conditions: 72 h; CPE in infected MDCK cells, ATP levels (ATPlite), three days post-virus exposure
in vitro = conditions: dog

Structure (SMILES)	IC50 [1]	CC50 at 3 days (in vitro)	melting point
Cc1nccc(N[C@H]2CCC[C@@H](Nc3nc(-c4c[nH]c5c(F)cc(F)cc45)ncc3F)C2)n1 [Compound 10]	20 nM	2.88 µM	–
Cc1cc(N[C@@H]2CCC[C@H](Nc3nc(-c4c[nH]c5c(F)cc(F)cc45)ncc3F)C2)ncn1 [Compound 11]	8 nM	5.97 µM	–
Nc1ncc(F)c(N[C@@H]2CCC[C@H](Nc3nc(-c4c[nH]c5c(F)cc(F)cc45)ncc3F)C2)n1 [Compound 12]	6 nM	> 1 µM	–
Nc1nc(N[C@H]2CCC[C@@H](Nc3nc(-c4c[nH]c5c(F)cc(F)cc45)ncc3F)C2)c2ccccc2n1 [Compound 13]	20 nM	11.6 µM	–
N#Cc1nccc(N[C@@H]2CCC[C@H](Nc3nc(-c4c[nH]c5c(F)cc(F)cc45)ncc3F)C2)n1 [Compound 14]	8 nM	3.15 µM	215.6 °C
COc1nccc(N[C@@H]2CCC[C@H](Nc3nc(-c4c[nH]c5c(F)cc(F)cc45)ncc3F)C2)n1 [Compound 15]	75 nM	3.19 µM	139.6 °C
Fc1cc(F)c2[nH]cc(-c3ncc(F)c(N[C@H]4CCC[C@@H](Nc5ccnc(Cl)n5)C4)n3)c2c1 [Compound 16]	8 nM	2.17 µM	–
Fc1cc(F)c2[nH]cc(-c3ncc(F)c(N[C@H]4CCC[C@@H](Nc5ccncn5)C4)n3)c2c1 [Compound 18]	8 nM	8.34 µM	166.5 °C
Fc1cc(F)c2[nH]cc(-c3ncc(F)c(N[C@H]4CCC[C@@H](Nc5ncncc5F)C4)n3)c2c1 [Compound 19]	140 nM	> 25 µM	215.6 °C
Cc1nc(-c2c[nH]c3c(F)cc(F)cc23)nc(N[C@@H]2CCC[C@H](Nc3cc(C(F)(F)F)nc(Cl)n3)C2)c1F [Compound 35]	30 nM	0.89 µM	–
Cc1nc(Cl)nc(N[C@@H]2CCC[C@H](Nc3nc(-c4c[nH]c5c(F)cc(F)cc45)nc(C)c3F)C2)c1F [Compound 36]	2 nM	> 25 µM	–
Cc1nc(-c2c[nH]c3c(F)cc(F)cc23)nc(N[C@H]2CCC[C@@H](Nc3nc(Cl)nc4c3CCCC4)C2)c1F [Compound 37]	11 nM	> 25 µM	–
Cc1nc(-c2c[nH]c3c(F)cc(F)cc23)nc(N[C@H]2CCC[C@@H](Nc3nc(Cl)nc4c3CCC4)C2)c1F [Compound 38]	1 nM	> 25 µM	–
Cc1nc(-c2c[nH]c3c(F)cc(F)cc23)nc(N[C@H]2CCC[C@@H](Nc3nc(Cl)nc4sccc34)C2)c1F [Compound 39]	3 nM	> 25 µM	–
Cc1nc(-c2c[nH]c3c(F)cc(F)cc23)nc(N[C@H]2CCC[C@@H](Nc3cncc(Cl)n3)C2)c1F [Compound 40]	24 nM	> 25 µM	201.8 °C
Cc1nc(-c2c[nH]c3c(F)cc(F)cc23)nc(N[C@H]2CCC[C@@H](Nc3ncc(C4CC4)c(Cl)n3)C2)c1F [Compound 41]	39 nM	> 25 µM	222.7 °C
Cc1nc(-c2c[nH]c3c(F)cc(F)cc23)nc(N[C@H]2CCC[C@@H](Nc3nc(Cl)ncc3C3CC3)C2)c1F [Compound 42]	41 nM	> 25 µM	–
Cc1nc(-c2c[nH]c3c(F)cc(F)cc23)nc(N[C@H]2CCC[C@@H](Nc3nc(O)ncc3C#N)C2)c1F [Compound 43]	0.6 nM	> 25 µM	–
Cc1cnc(Cl)nc1N[C@@H]1CCC[C@H](Nc2nc(-c3c[nH]c4c(F)cc(F)cc34)nc(C)c2F)C1 [Compound 44]	10 nM	> 25 µM	185.4 °C
COc1cnc(Cl)nc1N[C@@H]1CCC[C@H](Nc2nc(-c3c[nH]c4c(F)cc(F)cc34)nc(C)c2F)C1 [Compound 45]	36 nM	> 25 µM	246.6 °C
Cc1cc(N[C@@H]2CCC[C@H](Nc3nc(-c4c[nH]c5c(F)cc(F)cc45)nc(C)c3F)C2)ncn1 [Compound 46]	2 nM	> 25 µM	–
Cc1nc(-c2c[nH]c3c(F)cc(F)cc23)nc(N[C@H]2CCC[C@@H](Nc3ncnc4nc[nH]c34)C2)c1F [Compound 47]	0.7 nM	11 µM	–
Cc1cc(N[C@@H]2CCC[C@H](Nc3nc(-c4c[nH]c5c(F)cc(F)cc45)nc(C(=O)O)c3F)C2)nc(Cl)n1 [Compound 54]	61 nM	> 25 µM	–
Cc1cc(N[C@@H]2CCC[C@H](Nc3nc(-c4c[nH]c5ncncc45)nc(C)c3F)C2)ncn1 [Compound 64]	8 nM	> 25 µM	–
Cc1ccnc(N[C@@H]2CCC[C@H](Nc3nc(-c4c[nH]c5ncncc45)nc(C)c3F)C2)n1 [Compound 65]	7 nM	> 25 µM	–
Cc1cc(O[C@@H]2CCC[C@H](Nc3nc(-c4c[nH]c5c(F)cc(F)cc45)nc(C)c3F)C2)ncn1 [Compound 71]	13 nM	2.2 µM	–
